Test results as given in patent publication US20160230142A1, “CORNEAL STROMAL KERATOCYTE CULTURE” (SINGAPORE HEALTH SERVIES PTE LTD., priority 2013, published 2016).

Columns and labels:
Format in all cases: cell-based
[1] = tested on: human CSKs (at passage 6); test: Collagen gel contraction assay; conditions: TGFβ1 (20 ng/ml) added to KBM with 2% FBS, 48 hours
Procedure: Bovine type I collagen gels were made to a final concentration of 2.5 mg/ml as liquid with KBM and supplements. It was mixed with cells at a density of 10^5 cells/ml and 0.5 ml mixture was added to each well of 24-multiwell plate coated with 1% BSA. It was allowed to gelation at 37° C. for 1 hour before addition of appropriate medium. After 24 hours, the gel was released from the side of culture well with a sterile needle to initiate contraction. The collagen gel size change was recorded at 48-hour interval and measured using Image J software (NIH). The percentages of collagen gel size to the size of culture well were compared among different treatments. Experiment was done in quadruplicate and the percentages of gel contraction were represented as median and interquartile range. Intergroup significance was calculated by Mann-Whitney U test.

Smad2/3 = test: TGFβ-mediated nuclear localization of Smad2/3 (immunofluorescence); conditions: TGFβ1 10 ng/ml, human CSKs at passage 5
Procedure: The samples were fixed with freshly prepared 2% neutral buffered paraformaldehyde (Sigma), quenched with ice-cold 50 mM ammonium chloride (Sigma) and permeabilized with 0.15% saponin (Sigma). After blocking with 2% bovine serum albumin (Sigma) and 2% normal goat serum (Invitrogen), the cells were incubated with primary antibody recognizing aldehyde dehydrogenase 1A1 (ALDH1A1, Proteintech), lumican (LUM, Bioss), transketolase (Tkt, Cell Signalling), αSMA (Sigma) or Alexa Fluor 543-conjugated phalloidin (Sigma), respectively. The secondary antibodies were either Alexa488 or Rhodamine Red-X-conjugated (Jackson ImmunoRes Lab, West Grove, Pa.). All nuclei were counterstained with DAPI (4′,6-diamidino-2-phenylindole, Santa Cruz) and samples were mounted in FluorShield (Sigma). Results were visualized under fluorescence microscopy (Carl Zeiss) or confocal laser-scanning microscopy (LSM 510 Meta, Carl Zeiss).
To examine if LAE (ASE) was effective in suppressing CSK transition to fibroblasts, TGFβ-mediated nuclear localization of Smad2/3 was studied.

primary human CSKs = test: F-actin stress fiber pattern by phalloidin staining (stress index)
Procedure: Cornea specimens were washed in sterile PBS (0.01 M, Invitrogen, Carlsbad, Calif., US) added with 3% antibiotics-antimycotes (penicillin S, streptomysin sulfate and amphoptericin B, Invitrogen). Central corneal buttons (1 mm from peripheral limbus) were trephined and treated with dispase II (20 mg/ml, Roche, Basal, Switzerland) to remove corneal epithelium and endothelium. The stroma tissue was trimmed into small fragments (˜1 mm^3 in size) and digested with collagenase I (0.1%, Worthington, Lakewood, N.J., US) in keratocyte basal medium (KBM) for 8 to 10 hours at 37° C. After repeat pipetting, the cell suspension was passed through cell strainer (40 μm pore size), followed by centrifugation at 400 g for 5 min at room temperature. […]
The samples were fixed with freshly prepared 2% neutral buffered paraformaldehyde (Sigma), quenched with ice-cold 50 mM ammonium chloride (Sigma) and permeabilized with 0.15% saponin (Sigma). […] Results were visualized under fluorescence microscopy (Carl Zeiss) or confocal laser-scanning microscopy (LSM 510 Meta, Carl Zeiss).
[…] The percentage of stress cells in triplicate experiments was expressed as mean±SD. Results were compared and analyzed by paired Student's t-test and Dunn-Bonferroni correction.

Question: With TGFβ1: recombinant human TGFβ1 as the compound, how does the “gel contraction (median)” value [1] read?
Answer: 91.7%

Question: What about the “cells with nuclear Smad2/3” value (Smad2/3; 3 days) of the same compound?
Answer: 43.8%

Question: And the “cells with nuclear Smad2/3” value (Smad2/3; incubated for 3 hours)?
Answer: 22%

Question: With `C[C@@H](N)[C@H]1CC[C@H](C(=O)Nc2ccncc2)CC1` [Y27632, (1R,4r)-4-((R)-1-aminoethyl)-N-(pyridin-4-yl)cyclohexanecarboxamide] as the compound, how does the “stress index (percentage of cells with stress fibre pattern)” value (primary human CSKs; Y27632 (10 μM) added to KBM+0.5% FBS, 5 random fields) read?
Answer: 7.6±2.9%

Question: Which “cells with stress F-actin fibre” value (primary human CSKs; IGF1-treated cells with 0.5% FBS) does the source give for “IGF1: insulin-like growth factor 1 (10 ng/ml, Invitrogen)” here?
Answer: 29.3±7.3%
